Patent publication US8071797B2 (priority 2008, dated 2011)

Tests used:
[1] = molecular target: T1, HCV polymerase (NS5B570n-Con1) (Hepatitis C virus genotype 1b, UniProt Q9WMX2); assay: HCV NS5B RNA polymerase activity assay; format: biochemical, HCV Con1 strain
T1 construct: contains a 21 amino acid deletion at the C-terminus relative to the full-length HCV polymerase; 6-histidine (N); made in house; host or cells: E. coli BL21 (DE) pLysS
Method in brief: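 His6-tagged NS5B Con1 (genotype 1b, 21-aa C-terminal deletion; 20 nM) copied 20 nM cIRES RNA template with [3H]UTP plus 1 μM ATP, CTP and GTP in pH 8.0 Tris buffer with 4 mM MgCl2 and DTT, 2 h at 30 °C. TCA-precipitated RNA counted by scintillation. IC50 from four-parameter fit versus no-compound control, no-enzyme background subtracted.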

[2] = test system: HCV replicon cells (2209-23), genotype 1b replicon in Huh7 cells; assay: HCV replicon assay (Renilla luciferase reporter); format: cell-based, HCV genotype 1b; settings: Hepatitis C virus, Huh-7, 72 h; cell line 2209-23, three days incubation
in vitro = settings: human
HCV = settings: monotherapy; cited from earlier work
[3] = IC50 NS5B polymerase assay, Table I
[4] = Polymerase Assay IC50, Table II

SMILES | IC50 [1, 3] [nM] | IC50 [1, 4] [nM] | IC50 [2] [nM] | CC50 (in vitro) [nM] | melting point [°C] | patients in whom serum amino transferase levels are reduced to normal (HCV) [%]
CNC(=O)c1c(-c2ccc(Oc3ccc(F)cc3)cc2)oc2cc(N(CCCN)S(C)(=O)=O)c(C3CC3)cc12 [Compound I-69] | 18 | 18 | 10 | 4600 |  | 
CNC(=O)c1c(-c2ccc(Nc3ccccc3)cc2)oc2cc(N(CCO)S(C)(=O)=O)c(OC)cc12 [Compound I-1, 6-[(2-hydroxy-ethyl)-methanesulfonyl-amino]-5-methoxy-2-(4-phenylamino-phenyl)-benzofuran-3-carboxylic acid methylamide] | 43 | 5 | 43 | 30600 | 144.6 to 146.9 | 
CNC(=O)c1c(-c2ccc(Oc3ccc(F)cc3)cc2)oc2cc(NS(C)(=O)=O)c(C3CC3)cc12 [Compound I-40] | 98 |  |  |  | 169 to 170 | 
CNC(=O)c1c(-c2ccc(Oc3ccccc3)cc2)oc2cc(N3CCCS3(=O)=O)c(C3CC3)cc12 [Compound I-82, 5-Cyclopropyl-6-(1,1-dioxo-1λ^6-isothiazolidin-2-yl)-2-(4-phenoxy-phenyl)-benzofuran-3-carboxylic acid methylamide] | 66 |  |  |  | 174 to 176 | 
CNC(=O)c1c(-c2ccc(Oc3ccccc3)cc2)oc2cc(N3CCOCC3)c(C3CC3)cc12 [Compound I-77] | 672 |  |  |  | 223.4 to 223.9 | 
CNC(=O)c1c(-c2ccc(Oc3ccc(F)cc3)cc2)oc2cc(C(C)=O)c(OC)cc12 [Compound I-104] | 139 |  |  |  | 207 to 209 | 
CNC(=O)c1c(-c2ccc(Oc3ccc(F)cc3)cc2)oc2cc(N(CCO)S(C)(=O)=O)c(C3CC3)cc12 [Compound I-32, 5-Cyclopropyl-2-[4-(4-fluoro-phenoxy)-phenyl]-6-[(2-hydroxy-ethyl)-methanesulfonyl-amino]-benzofuran-3-carboxylic acid methylamide] | 60 |  |  |  | 110 to 115 | 
CNC(=O)c1c(-c2ccc(Oc3ccc(F)cc3)cc2)oc2cc(N(CC(N)CO)S(C)(=O)=O)c(C3CC3)cc12.Cl (centres unmarked) [Compound I-107] | 19 |  |  |  | 178 to 180 | 
CNC(=O)c1c(-c2ccc(Oc3ccc(F)cc3)cc2)oc2cc(N(CCCNS(C)(=O)=O)S(C)(=O)=O)c(C3CC3)cc12 [Compound I-116] |  |  | 4 |  |  | 
NC(=O)c1ncn([C@@H]2O[C@H](CO)[C@@H](O)[C@H]2O)n1 [ribavirin, 1-((2R,3R,4S,5R)-3,4-Dihydroxy-5-hydroxymethyl-tetrahydro-furan-2-yl)-1H-[1,2,4]triazole-3-carboxylic acid amide] |  |  |  |  |  | 40
CNC(=O)c1c(-c2ccc(Oc3ccccc3)cc2)oc2cc(N3CCCCS3(=O)=O)c(C3CC3)cc12 [Compound I-93] | 71 |  |  |  | 197 to 199 | 
CNC(=O)c1c(-c2ccc(Oc3ccccc3)cc2)oc2cc(N(CCO)S(C)(=O)=O)c(C3CC3)cc12 [Compound I-33] | 21 |  |  |  | 110 to 115 | 
CNC(=O)c1c(-c2ccc(Oc3ccccc3)cc2)oc2cc(N3CCN(C)S3(=O)=O)c(C3CC3)cc12 [Compound I-105, 5-Cyclopropyl-6-(5-methyl-1,1-dioxo-1λ^6-[1,2,5]thiadiazolidin-2-yl)-2-(4-phenoxy-phenyl)-benzofuran-3-carboxylic acid methylamide] | 41 |  |  |  | 105 to 107 | 
